Values quoted from earlier work as cited in patent US20070225337A1, “Novel Co-Precipitate of Amorphous Rosiglitazone” (SANDOZ AG, priority 2004, published 2007).

What was measured:
[1] = compared with the corresponding free base

Question: What does the source list for CN(CCOc1ccc(CC2SC(=O)NC2=O)cc1)c1ccccn1.O=C(O)/C=C\C(=O)O (centres unmarked) [Rosiglitazone maleate, 5-[4-[2-[N-methyl-N-(2-pyridyl)amino]ethoxy]benzyl]thiazolidine-2,4-dione maleate]?
Answer: stability in the solid form: good stability in the solid form; solubility in water [1]: significantly more soluble in water than the corresponding free base
